Results as given in patent US9353089B2, “Compositions and methods for the treatment of malaria” (Saint Louis University, priority 2013, dated 2016).
Where two headings read alike, the source gives them in different places.

Legend:
[1] = target: recombinant human Cathepsin D (Homo sapiens (Human), UniProt P07339); assay: Cathepsin D enzyme inhibition FRET assay; format: biochemical; conditions: Table 8; read-out: CatD IC50
Method: (§1) The enzymatic inhibition activity assays were determined using the fluorescence resonance energy transfer (FRET) assay. The assays were performed in a 384-well plate format. […] The concentration of Cathepsin D was 20 ng/μL, and 1 ng/μL of Cathepsin E was used. CatD and CatE were activated by incubation in assay buffer (0.1 M NaOAc, 0.2 M NaCl, pH 3.5) at room temperature for 30 min. Subsequently, the rhBACE-1 substrate (R&D Systems, catalog# ES004), the Cathepsin D and Cathepsin E substrate (R&D Systems, Catalog # ES001) were added accordingly to final concentration 20 μM to initiate the reaction. After 60 min incubation at room temperature, the time-resolved fluorescence at Ex/Em=360 nm/460 nm was measured on an EnVision multilabel plate reader (Perkin-Elmer). The analytical software, GraphPad Prism 5.0 (GraphPad Software, Inc., USA) was used to generate IC50 values via non-linear regression analysis, which are reported in Tables 8-13 below as BACE1 IC50 values.

[2] = target: Plasmepsin (PM-4; Plm IV) (Plasmodium falciparum (isolate 3D7), UniProt Q8IM16); assay: Plasmepsin-4 enzyme inhibition assay; format: biochemical; conditions: Table 8
Method: Plasmepsin-2 (PM-2; Plm II) and Plasmepsin (PM-4; Plm IV) expression and purification was performed following the published protocols (Istvan E S and Goldberg D E, 2005). The final purified protein was activated by diluting the protein to 0.3 mg/mL in activating buffer (0.1 M citrate pH 4.5, 0.1% Tween-20, 50 mM dithiothreitol) and incubated at room temperature for 40 min, then the activated enzyme was diluted in assay buffer (50 mM sodium acetate pH 4.7, 0.01% Tween-20). The enzymatic inhibition reaction was performed in 384 well plates with a total volume of 20 μl. 10 μl of diluted PM-2 or PM-4 enzyme was added to the 384-well plate except blank wells (blank wells add 10 μL of assay buffer) and 20 nL of serials of diluted 1000× compounds were added to the wells with 520 Echo® Liquid Handling System (Labcyte Inc.). 10 μL PM-2 peptide substrate (AnaSpec, Cat#, 62050) with assay buffer was then added to final concentration of 20 μM to start the reaction. After incubation the reaction at room temperature for 60 min, the fluorescence intensity at Ex/Em=360 nm/535 nm was measured using EnVision multilabel plate reader (Perkin-Elmer). The IC50 values were obtained using Graph Pad Prism 4 and are reported in Tables 8 and 9 below as PM-2 IC50 values.

[3] = target: recombinant human Cathepsin E (Homo sapiens (Human), UniProt P14091); assay: Cathepsin E enzyme inhibition FRET assay; format: biochemical; conditions: Table 8; read-out: CatE IC50
Method: as §1

HepG2 cells = assay: HepG2 cytotoxicity assay; format: cell-based; conditions: Homo sapiens, 72 hours
Method: HepG2 cells (ATCC Cat. No. HB-8065) were maintained in DMEM supplemented with 10% fetal bovine serum and L-glutamine. Cells were grown at 37° C. and 5% CO2 on flasks coated with poly-d-lysine. To assess compounds for potential cytotoxic properties cells were plated at 10,000 cells per well on 96-well poly-d-lysine plates at 10,000 cells per well. HepG2 cells were allowed to adhere for at least 4 hours prior to application of test compounds. Cells were incubated with test compounds for 72 hours before measuring cellular viability. Cellular viability was measured using PrestoBlue® Cell Viability Reagent (Life Technologies). Briefly, 11 μL of 10× PrestoBlue reagent was added to 100 μl in each assay well. Cells were incubated at 37° C. and 5% CO2 for 30 minutes prior to reading on Tecan Safire2, excitation at 560 nm, 10 nm bandwidth and emission at 590 nm, 10 nm bandwidth. GraphPad Prism 5.0 (GraphPad Software, Inc., USA) was used to generate IC50 values via non-linear regression analysis.

[4] = RLM metabolic stability assay; format: in vitro ADME; conditions: pH 7.4, rat liver microsomes, read-out: RLM t1/2
Method: In this protocol, the metabolic stability of compounds at 1 μM was determined in Mouse Liver Microsome (MLM), rat liver microsomes (RLM) or human liver microsomes (HLM). […]. After incubation at 37° C. for a specific time period (0, 5, 10, 20 and 30 min), the reaction was terminated by the addition of 200 μL ice cold acetonitrile containing internal standard (100 ng/mL) after 100 μL aliquots of reaction mixture was removed. The quenched reaction mixtures were centrifuged at 3200 rpm for 5 min, and 100 μL of the supernatant were transferred to 96-well deep plate. The samples in 96 well plate were analyzed by LC-MS/MS using an Applied Biosystems-Sciex model API 3000 mass spectrometer. The data were analyzed using the following equations. […]

[5] = system: Plasmodium falciparum Dd2 (multi-drug resistant); assay: In vitro antimalarial assay (malaria SYBR Green I-based fluorescence, MSF), Dd2; format: cell-based
Method: In vitro antimalarial activity was determined by a malaria SYBR Green I-based fluorescence (MSF) method described previously by Smilkstein et al. (2004, which is incorporated herein by reference) with slight modification (Winter, et al., 2006, which is incorporated herein by reference). Stock solutions of each test drug were prepared in DMSO at a concentration of 20 mM. The drug solutions were serially diluted with culture medium and distributed to asynchronous parasite cultures on 96-well plates in quadruplicate in a total volume of 100 μL to achieve 0.5% parasitemia with a 2% hematocrit in a total volume of 100 pt. The plates were then incubated for 72 h at 37° C. After incubation, 100 μL of lysis buffer with 0.2 μL/mL SYBR Green I was added to each well. The plates were incubated at 37° C. for an hour in the dark and then placed in a 96-well fluorescence plate reader (Spectramax Gemini-EM; Molecular Diagnostics) with excitation and emission wavelengths at 497 nm and 520 nm, respectively, for measurement of fluorescence.
Antimalarial potency of compounds was determined by this technique for both Plasmodium falciparum 3D7 (CQ-sensitive) and Dd2 (multi-drug resistant) strains.

[6] = target: Plasmepsin-2 (PM-2; Plm II) (Plasmodium falciparum (isolate HB3), UniProt P46925); assay: Plasmepsin-2 enzyme inhibition assay; format: biochemical
How it was run: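 Enzymes activated in pH 4.5 citrate/DTT buffer, then assayed in 50 mM sodium acetate pH 4.7, 0.01% Tween-20. Compounds added before fluorogenic peptide substrate (final 20 µM); 60 min at room temperature, fluorescence Ex/Em 360/535 nm, IC50 by curve fit.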

[7] = DD2, 72 h, read-out: Pf Dd2 IC50 (μM, 72 hr)

recombinant human Cathepsin E, sequence (P14091 54-396): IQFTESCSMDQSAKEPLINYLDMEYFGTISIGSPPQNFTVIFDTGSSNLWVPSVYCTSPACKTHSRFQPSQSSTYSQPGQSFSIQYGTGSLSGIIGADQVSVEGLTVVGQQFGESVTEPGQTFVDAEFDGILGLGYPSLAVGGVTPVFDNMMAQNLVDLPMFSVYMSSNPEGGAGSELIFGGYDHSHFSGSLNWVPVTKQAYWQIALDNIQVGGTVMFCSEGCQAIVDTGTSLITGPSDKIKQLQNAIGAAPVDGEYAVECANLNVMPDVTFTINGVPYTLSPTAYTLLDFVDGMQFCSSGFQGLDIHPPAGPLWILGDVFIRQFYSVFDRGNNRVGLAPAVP
Plasmepsin (PM-4; Plm IV), sequence (Q8IM16 122-449 limits assumed): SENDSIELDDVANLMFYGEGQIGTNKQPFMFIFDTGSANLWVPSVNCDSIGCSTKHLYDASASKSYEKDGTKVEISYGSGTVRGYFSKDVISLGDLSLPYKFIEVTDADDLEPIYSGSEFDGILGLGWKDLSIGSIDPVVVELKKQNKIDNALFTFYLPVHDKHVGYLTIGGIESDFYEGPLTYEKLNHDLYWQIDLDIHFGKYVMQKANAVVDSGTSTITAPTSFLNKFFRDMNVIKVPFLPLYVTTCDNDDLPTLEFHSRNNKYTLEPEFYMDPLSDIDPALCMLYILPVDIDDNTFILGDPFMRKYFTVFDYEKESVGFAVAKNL
recombinant human Cathepsin D, sequence (P07339 65-412): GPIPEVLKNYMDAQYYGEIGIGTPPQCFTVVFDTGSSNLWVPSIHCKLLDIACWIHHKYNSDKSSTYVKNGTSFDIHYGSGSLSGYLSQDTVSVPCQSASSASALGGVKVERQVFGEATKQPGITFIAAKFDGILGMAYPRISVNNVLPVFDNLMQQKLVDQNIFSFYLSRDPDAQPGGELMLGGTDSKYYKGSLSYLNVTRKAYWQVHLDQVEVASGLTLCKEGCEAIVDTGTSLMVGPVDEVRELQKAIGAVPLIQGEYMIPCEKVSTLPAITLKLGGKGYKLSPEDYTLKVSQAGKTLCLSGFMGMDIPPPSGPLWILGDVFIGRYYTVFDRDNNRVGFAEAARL
Plasmepsin-2 (PM-2; Plm II), sequence (P46925 125-453 limits assumed): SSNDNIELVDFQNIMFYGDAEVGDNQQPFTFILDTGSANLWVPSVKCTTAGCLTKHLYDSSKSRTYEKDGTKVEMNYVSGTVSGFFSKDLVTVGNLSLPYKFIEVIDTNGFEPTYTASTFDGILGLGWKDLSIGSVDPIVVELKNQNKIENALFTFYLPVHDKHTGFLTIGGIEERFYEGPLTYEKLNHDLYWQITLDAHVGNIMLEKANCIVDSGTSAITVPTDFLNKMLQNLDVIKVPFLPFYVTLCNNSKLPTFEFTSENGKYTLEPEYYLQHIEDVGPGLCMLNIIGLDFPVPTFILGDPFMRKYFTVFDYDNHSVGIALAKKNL

## COc1ccc(C2(c3ccc(OC)cc3)NC(=N)N(C3CCN(C(=O)OC(C)(C)C)CC3)C2=O)cc1 [Example 206, tert-butyl 4-[2-imino-4,4-bis(4-methoxyphenyl)-5-oxoimidazolidin-1-yl]piperidine-1-carboxylate]
[1]
  IC50: 520 nM
[2]
  IC50: 10 nM
[3]
  IC50: 233 nM
HepG2 cells
  IC50: 8000 nM
[4]
  half-life at 1 μM: 14 min
[5]; [7]
  IC50: 0.367 µM
[6]; Table 8, read-out: PM-II IC50
  IC50: 2 nM
[6]; Table 13, read-out: PM-2 IC50
  IC50: 2.76 nM

## COc1ccc(C2(c3ccc(OC)cc3)NC(=N)N(CC3CCOCC3)C2=O)cc1 [Example 275, 2-imino-5,5-bis(4-methoxyphenyl)-3-(oxan-4-ylmethyl)imidazolidin-4-one]
[1]
  IC50: 934 nM
[2]
  IC50: 59 nM
[3]
  IC50: 841 nM
HepG2 cells
  IC50: 30000 nM
[4]
  half-life at 1 μM: 35 min
[5]; [7]
  IC50: 0.442 µM
[5]; DD2, read-out: Dd2 IC50 (μM)
  IC50: 0.442 µM
[6]; Table 8, read-out: PM-II IC50
  IC50: 17 nM
[6]; Table 13, read-out: PM-2 IC50
  IC50: 16.9 nM

## COc1ccc(C2(c3ccc(OC)cc3)NC(=N)N(C3CCOCC3)C2=O)cc1 [Example 176, 2-imino-5,5-bis(4-methoxyphenyl)-3-(oxan-4-yl)-imidazolidin-4-one]
[1]
  IC50: > 10000 nM
[2]
  IC50: 18 nM
[3]
  IC50: 511 nM
HepG2 cells
  IC50: > 50000 nM
[4]
  half-life at 1 μM: 83 min
[5]; [7]
  IC50: 0.526 µM
[5]; DD2, read-out: Dd2 IC50 (μM)
  IC50: 0.526 µM
[6]; Table 8, read-out: PM-II IC50
  IC50: 7 nM
[6]; Table 13, read-out: PM-2 IC50
  IC50: 6.81 nM
